For experiment [1], the system named is Collagen 1A promoter. As to the kind of experiment: COLLAGEN PROMOTER ASSAY (Collagen 1A promoter-luciferase reporter in H9C2 cells). The format is cell-based, rat. To be noted: 1 ug/ml of each active (on active basis), transfected H9C2 cells, 24 hours; for Percent Change Over Vehicle (collagen promotion): vehicle DMSO 0.01%. The method, then: Suitable non-retinoid collagen promoters may be determined, for example, using the COLLAGEN PROMOTER ASSAY. The COLLAGEN PROMOTER ASSAY is performed as follows. Rat cardiac myoblasts H9C2, which may be purchased from ATCC (Manassas, Va.), are used. Cultures are maintained in Dulbecco's modified Eagle's medium (DMEM, Invitrogen Life Technologies, Carlsbad, Calif.) supplemented with 10% fetal bovine serum, 2 mM glutamine, 100 units/ml penicillin, and 50 ug/ml streptomycin (Invitrogen life technologies, Carlsbad, Calif.). Cell cultures are transiently transfected with the Collagen 1A promoter-luciferase reporter construct, driving the firefly luciferase gene, which may obtained for example from PREMAS Biotech Pvt. Ltd (Haryana, India). In all transfections, a construct with the thymidine kinase promoter and the Renilla luciferase reporter gene (pRL-TK, Promega, Madison, Wis.) is included as an internal control. Cells grown in 48-well plates are transfected with 0.45 ug total DNA per well using Lipofectamine 2000 (Invitrogen life technologies, Carlsbad, Calif.). One day after transfection, cells are treated with agents at the indicated concentrations for approximately 24 hours before they are lysed for luciferase assays, using Dual-Luciferase Reporter System from Promega (Madison, Wis.), following manufacturer's protocol. The firefly luciferase activity is measured first (representing collagen promoter activity), followed by the renilla luciferase (internal control), using luminometer LMAX, from Molecular Devices (Sunnyvale, Calif.). The ratio of these two luciferase activities (RLU) is used to evaluate the activity of each promoter.
The COLLAGEN PROMOTER ASSAY was performed on the following compounds: Tanacetum parthenium (parthenolide-free feverfew extract from Integrated Botanical Technologies of Ossining, N.Y.) and 4-hexylresorcinol (Synovea HR, from Sytheon Ltd). The compounds were diluted in cell culture media (DMEM Media of Invitrogen, San Diego Calif.) to the concentration of “active” extract as indicated in Table 3 below. […]
(In general: A reporter such as luciferase makes a cellular process visible.)

The test system of experiment [2] is NFκB. As to the kind of experiment: NFκB-INHIBITION TEST (NF-kB gene reporter, TNFα-stimulated FB293 cells, luciferase). The format is cell-based. To be noted: Homo sapiens, 24 h; series of substituted resorcinols, each 10 ug/ml (Table 2); read-out: Percent NF-kB Inhibition. The method, then:
The NFκB-INHIBITION TEST is conducted in the following manner. FB293 cells, a stable transfected human epithelial cell line containing the gene reporter for NF-kB are used. They may be obtained from, e.g., Panomics (Fremont, Calif.). FB293 are plated at a density of 5×10^4 cells/mL in a suitable medium, e.g., Dulbecco's modified Eagle's medium (DMEM) supplemented with 10% fetal bovine serum (Invitrogen, San Diego, Calif.). The FB293 cells are stimulated with 100 ng/mL of Tumor Necrosis Factor-α(TNFα, available from Sigma-Aldrich of St Louis, Mo.) in the presence of the test sample. Separately, a control sample is tested wherein no test sample is applied. Following a 24-hour incubation at 37° C. with 5% CO2, cells are lysed with 40 μl of reporter lysis buffer (Promega, Madison, Wis.). A […] aliquot of the lysate is assayed using a luciferase assay kit (Promega) and counted for 10 s in a Lmax luminometer (Molecular Devices, Sunnyvale, Calif.) with the data represented as the relative light unit/second. Percent NFκB Inhibition of the test sample is calculated as: NFκB Inhibition=[1−(Lsample/Lcontrol)]*100 where Lsample is the luminescence of the sample and Lcontrol is the luminescence of the control. […]

For `CCCCCCc1ccc(O)cc1O` [4-Hexylresorcinol], the “Percent Change Over Vehicle (collagen promotion)” value in experiment [1] and in experiment [1] (listed as 4-hexylresorcinol) was −3% each time. Further, the “Collagen 1A Promoter Activity” value in experiment [1] (vehicle control = 1.00) is listed as 0.97 ± 0.17.
`CCCCCCCCCCCC1c2cc(c(O)cc2O)C(CCCCCCCCCCC)c2cc(c(O)cc2O)[C@H](CCCCCCCCCCC)c2cc(c(O)cc2O)[C@H](CCCCCCCCCCC)c2cc1c(O)cc2O` (stereo partly shown) [C-Undecylcalix[4]-resorcinarene]: in experiment [2], the inhibition at 10 µg/mL turned out to be 4.87%.

For orientation: inhibition means how much of the control response was suppressed.
